Source: US20100159528A1, “POLYMERASE STABILIZATION” (GE HEALTHCARE BIO-SCIENCE CORP., priority 2007, published 2010)

How the values were obtained:
Tba DNA polymerase = assay: PCR assay for detergents screening: amplification of a 1 kb λDNA fragment with Tba purified and stored without detergents; type: biochemical, Thermococcus barossii; conditions: for % Activity relative to TWEEN ® 20: PCR yield of 1 kb λDNA fragment, Agilent Bioanalyzer; for PCR yield higher than the positive control (TWEEN® 20): PCR reactions containing the detergent; for stabilization and activation of DNA polymerase (in words): detergent added into PCR reaction mix at 0.01% and 0.1% (FIG. 2)
Method: In this experiment, two lots of DNA polymerase that were purified and stored in buffers with/without detergents were tested. Each of the tested DNA polymerase was first diluted into 20 folds in buffers with and without of TWEEN® 20, respectively, prior to PCR and then equal units of enzyme was added into PCR mix. PCRs were performed in 25 μl volume in with 200 nM of forward and reverse primers, 200 μM dNTP, 1.0 unit of Tba and 1.0 ng template DNA. 1 kb human genomic DNA and 1 kb lambda DNA fragments were amplified. Reaction buffer contains 10 mM Tris-HCl, pH 9.0, 50 mM KCl, and 1.5 mM MgCl2. The PCR reaction was started by 2 minutes initial heating at 95° C., followed by 35 cycles with 95° C. for 30 s, 55° C. 30 s, and 72° C. for 60 s, and then final extension at 72° C. for 5 min. The PCR products were analyzed with Agilent Bioanalyzer.
The PCR assay was used for the detergents screening. The tested detergents were first dissolved in molecular biology grade water and neutralized to pH7 with a sodium hydroxide solution to make final concentration of 5% (W/V) stock solutions. The 5% detergent solutions were then used for the screening by either adding them into enzyme dilution buffer or spiked into PCR mix. The amplification of a 1 kb λDNA fragment was used test the effect of each detergent on the Tba stability and activity. The PCR conditions are the same as described earlier. Tba that was purified and stored in the absence of detergents was used for the tests. The tested detergents were spiked into the PCR reactions at a final concentration of 0.01%, 0.05%, and 0.1%, respectively. The PCR yields were quantitated by Agilent Bioanalyzer.

δJSER DNA polymerase = assay: Stabilization/activation test for δJSER DNA polymerase; type: biochemical, JSER; conditions: compared with the effect on Tba
Method: (§1) The stabilization functions of these two detergents are tested for δJSER DNA polymerase as well. […] In addition, the stabilization effects of these two detergents on DNA polymerase were also tested in the activity assay and thermostability assay.

DNA polymerase [1] = system: DNA polymerase
Method: An enzyme will have a maximal activity rate, which is preferably measured under conditions of saturating substrate concentration and at a selected set of environmental conditions including temperature, pH and salt concentration. For the DNA polymerases described herein, preferred conditions for measuring activity are 25 mM TAPS (tris-hydroxymethyl 25 methylaminopropane sulfonic acid) buffer, pH 9.3 (measured at 25° C.), 50 mM KCl, 2 mM MgCl2, 1 mM 2- mercaptoethanol, 0.2 mM each of dGTP, dCTP, dTTP, 0.2 mM [α-33P]-dATP (0.05-0.1 Ci/mmol) and 0.4 mg/mL activated salmon sperm DNA. The reaction is allowed to proceed at 74° C. Exemplary methods for measuring the DNA polymerase activity of an enzyme under such 30 conditions are provided hereinafter.
as §1

DNA polymerase [2] = conditions: for effect of high detergent concentration on stability and activity: Concentrations above 0.5% (W/V)
Method: For ♦, each detergent is present at the indicated amount.
as §1

[3] = Detergent Conc. 0.01% in PCR reaction
[4] = Detergent Conc. 0.05% in PCR reaction
[5] = Detergent Conc. 0.10% in PCR reaction

Substance	% Activity relative to TWEEN ® 20 (Tba DNA polymerase; [3]) [%]	% Activity relative to TWEEN ® 20 (Tba DNA polymerase; [4]) [%]	% Activity relative to TWEEN ® 20 (Tba DNA polymerase; [5]) [%]	PCR yield higher than the positive control (TWEEN® 20) (Tba DNA polymerase)	stabilization and activation of DNA polymerase (in words) (Tba DNA polymerase)	activation of δJSER DNA polymerase (δJSER DNA polymerase)	stabilization effect in the activity assay compared with TWEEN® 20 (DNA polymerase [1])	stabilization effect in the thermostability test compared with TWEEN® 20 (DNA polymerase [2])	DNA polymerase remaining active after heating (DNA polymerase [2]; 95° C., 15 minutes, 1x PCR buffer, compared with NP40 and TWEEN® 20 (FIG. 3))	effect of high detergent concentration on stability and activity (DNA polymerase [2])	formation of PCR products depending on detergent in the enzyme dilution buffer (Tba DNA polymerase; Tba diluted 20 fold in buffer with/without TWEEN® 20, 1 kb λDNA and human genomic DNA fragments (FIG. 1))
polyoxyethylene nonylphenol ether, phosphate [RHODAFAC™ RE-960]	130.7	165.8	167.1	about 30%	work very well in stabilization and activation of DNA polymerase	same activation	same or better stabilization effects	same or better stabilization effects	more DNA polymerase remains active	do not improve stability but do not decrease activity	–
polyoxyethylene tridecyl ether, phosphate [RHODAFAC™ RS-960]	101.8	167.9	178.6	about 30%	work very well in stabilization and activation of DNA polymerase	same activation	same or better stabilization effects	same or better stabilization effects	–	do not improve stability but do not decrease activity	–
TWEEN® 20 [reference compound]	–	–	–	–	–	–	–	–	–	–	PCR products were only obtained from the reactions that the enzymes were diluted in a buffer containing the detergent
